Measurements reported in patent US10052320B2, “Substituted quinoxalines as FGFR kinase inhibitors” (ASTEX THERAPEUTICS LIMITED, priority 2011, dated 2018).
pIC50: −log10 of the molar value.

Key:
[1] = molecular target: FGFR4 (h) (Homo sapiens, UniProt P22455); experiment: FGFR4 (enzymatic assay), TR-FRET; format: biochemical; conditions: read-out: FGFR 4 pIC50 (converted)
Procedure: In a final reaction volume of 30 μL, FGFR4 (h) (60 ng/ml) was incubated with 50 mM HEPES pH 7.5, 6 mM MnCl2, 1 mM DTT, 0.1 mM Na3VO4, 0.01% Triton-X-100, 500 nM Btn-Flt3 and 5 μM ATP in the presence of compound (1% DMSO final). […] Time-Resolved Fluorescence Resonance Energy Transfer (TR-FRET) signal (ex340 nm. Em 620 nm, em 655 nm) was measured afterwards and results are expressed in RFU (Relative Fluorescence Units).

[2] = molecular target: KDR (h) (VEGFR2) (Homo sapiens, UniProt P35968); experiment: KDR (VEGFR2) (enzymatic assay), TR-FRET; format: biochemical
Summary of the method: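 Phosphorylation of biotinylated Flt3 peptide (500 nM) by 150 ng/ml enzyme was measured at 3 μM ATP in Mn2+-containing HEPES buffer, pH 7.5, over 120 min at room temperature. Detection used Eu-anti-P-Tyr and SA-XL-665 TR-FRET.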

[3] = molecular target: Ba/F3-FGFR1-transfected cells (Homo sapiens, UniProt P11362); experiment: Ba/F3-FGFR1 (minus IL3) cellular proliferation assay, Alamar Blue; format: cell-based; conditions: for BAF3-FGFR 1 (MIN IL3) 384 well pIC50: minus IL3, 384 well
Summary of the method: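 Compound dilutions in DMSO are combined with transfected cells in phenol red-free RPMI-1640 containing 10% FBS and L-glutamine. Plates incubate 24 h at 37 °C and 5% CO2. Viability is then scored by 4 h Alamar Blue conversion, read as fluorescence (540 nm excitation, 590 nm emission).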

[4] = molecular target: Ba/F3-FGFR3-transfected cells (Homo sapiens, UniProt P22607); experiment: Ba/F3-FGFR3 (minus IL3) cellular proliferation assay, Alamar Blue; format: cell-based; conditions: for BAF3-FGFR 3 (MIN IL3) 384 well pIC50: minus IL3, 384 well
Summary of the method: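 Cells are seeded with compound dilutions, incubated 24 h at 37 °C under 5% CO2, then given resazurin-based Alamar Blue for a further 4 h before fluorescence is measured. The plus-IL3 counterscreen repeats this with 10 ng/ml murine IL3.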

[5] = molecular target: Ba/F3-FGFR4-transfected cells (Homo sapiens, UniProt P22455); experiment: Ba/F3-FGFR4 cellular proliferation assay, Alamar Blue; format: cell-based
Summary of the method: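 Alamar Blue fluorescence (540/590 nm, 4 h development) measured growth of FGFR4-transfected Ba/F3 cells after 24 h compound treatment at 37° C. Cells were seeded at 20000/well in RPMI-1640, 10% FBS.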

KDR (h) (VEGFR2), sequence (P35968 20-1356): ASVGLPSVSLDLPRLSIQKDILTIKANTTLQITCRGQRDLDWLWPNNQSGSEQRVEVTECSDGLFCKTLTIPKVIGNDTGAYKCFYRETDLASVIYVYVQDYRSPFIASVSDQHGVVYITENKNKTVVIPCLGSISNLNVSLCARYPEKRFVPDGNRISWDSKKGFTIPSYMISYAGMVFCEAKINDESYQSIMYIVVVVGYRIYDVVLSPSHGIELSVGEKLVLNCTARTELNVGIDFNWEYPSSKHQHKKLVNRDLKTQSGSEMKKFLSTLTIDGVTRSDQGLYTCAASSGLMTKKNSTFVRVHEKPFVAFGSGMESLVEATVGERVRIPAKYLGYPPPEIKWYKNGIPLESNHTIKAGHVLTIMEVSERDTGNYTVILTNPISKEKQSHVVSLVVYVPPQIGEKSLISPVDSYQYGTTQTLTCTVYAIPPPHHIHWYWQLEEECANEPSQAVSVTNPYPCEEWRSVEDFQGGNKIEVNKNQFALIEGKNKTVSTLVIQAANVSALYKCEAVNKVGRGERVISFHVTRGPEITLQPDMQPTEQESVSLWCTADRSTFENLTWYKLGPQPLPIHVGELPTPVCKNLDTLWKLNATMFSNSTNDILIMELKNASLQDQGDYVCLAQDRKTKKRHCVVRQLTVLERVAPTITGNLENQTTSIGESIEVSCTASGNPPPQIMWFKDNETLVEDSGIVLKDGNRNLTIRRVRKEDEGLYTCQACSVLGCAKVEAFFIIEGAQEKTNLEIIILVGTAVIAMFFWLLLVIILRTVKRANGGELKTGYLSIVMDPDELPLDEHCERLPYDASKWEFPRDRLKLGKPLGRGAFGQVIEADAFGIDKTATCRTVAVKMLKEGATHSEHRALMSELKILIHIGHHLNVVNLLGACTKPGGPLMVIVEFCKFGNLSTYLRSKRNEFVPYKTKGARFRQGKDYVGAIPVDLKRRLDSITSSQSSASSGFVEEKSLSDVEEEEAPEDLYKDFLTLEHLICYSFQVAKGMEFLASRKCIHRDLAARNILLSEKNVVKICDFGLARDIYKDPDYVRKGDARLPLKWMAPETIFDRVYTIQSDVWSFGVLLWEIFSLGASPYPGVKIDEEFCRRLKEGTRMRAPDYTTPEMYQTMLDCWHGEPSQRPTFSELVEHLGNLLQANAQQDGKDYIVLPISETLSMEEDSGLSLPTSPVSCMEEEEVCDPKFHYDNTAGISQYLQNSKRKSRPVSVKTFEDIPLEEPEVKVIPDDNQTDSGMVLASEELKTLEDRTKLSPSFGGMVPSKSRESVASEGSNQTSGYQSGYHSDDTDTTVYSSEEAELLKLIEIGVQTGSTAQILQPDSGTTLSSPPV
FGFR4 (h), sequence (P22455 22-802): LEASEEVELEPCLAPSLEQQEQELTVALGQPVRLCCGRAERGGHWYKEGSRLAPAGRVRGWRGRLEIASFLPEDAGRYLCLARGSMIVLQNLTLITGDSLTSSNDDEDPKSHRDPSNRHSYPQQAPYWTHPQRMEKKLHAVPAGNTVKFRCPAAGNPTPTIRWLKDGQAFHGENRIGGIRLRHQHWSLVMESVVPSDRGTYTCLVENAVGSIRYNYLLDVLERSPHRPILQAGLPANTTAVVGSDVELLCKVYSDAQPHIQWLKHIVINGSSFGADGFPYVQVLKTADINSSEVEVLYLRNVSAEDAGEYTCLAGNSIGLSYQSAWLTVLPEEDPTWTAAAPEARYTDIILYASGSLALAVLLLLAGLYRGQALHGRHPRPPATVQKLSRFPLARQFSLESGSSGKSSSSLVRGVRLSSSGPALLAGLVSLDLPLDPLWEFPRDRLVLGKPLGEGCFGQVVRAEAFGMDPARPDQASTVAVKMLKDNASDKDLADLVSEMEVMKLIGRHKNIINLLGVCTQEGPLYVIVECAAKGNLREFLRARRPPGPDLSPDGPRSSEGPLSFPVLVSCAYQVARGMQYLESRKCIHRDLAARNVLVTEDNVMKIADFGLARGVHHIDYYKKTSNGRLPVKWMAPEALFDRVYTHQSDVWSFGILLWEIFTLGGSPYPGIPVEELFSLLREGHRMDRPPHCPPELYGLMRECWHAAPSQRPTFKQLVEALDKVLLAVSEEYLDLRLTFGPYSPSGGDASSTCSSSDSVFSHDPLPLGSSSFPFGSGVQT
Ba/F3-FGFR1-transfected cells, sequence (P11362 whole entry, change not shown): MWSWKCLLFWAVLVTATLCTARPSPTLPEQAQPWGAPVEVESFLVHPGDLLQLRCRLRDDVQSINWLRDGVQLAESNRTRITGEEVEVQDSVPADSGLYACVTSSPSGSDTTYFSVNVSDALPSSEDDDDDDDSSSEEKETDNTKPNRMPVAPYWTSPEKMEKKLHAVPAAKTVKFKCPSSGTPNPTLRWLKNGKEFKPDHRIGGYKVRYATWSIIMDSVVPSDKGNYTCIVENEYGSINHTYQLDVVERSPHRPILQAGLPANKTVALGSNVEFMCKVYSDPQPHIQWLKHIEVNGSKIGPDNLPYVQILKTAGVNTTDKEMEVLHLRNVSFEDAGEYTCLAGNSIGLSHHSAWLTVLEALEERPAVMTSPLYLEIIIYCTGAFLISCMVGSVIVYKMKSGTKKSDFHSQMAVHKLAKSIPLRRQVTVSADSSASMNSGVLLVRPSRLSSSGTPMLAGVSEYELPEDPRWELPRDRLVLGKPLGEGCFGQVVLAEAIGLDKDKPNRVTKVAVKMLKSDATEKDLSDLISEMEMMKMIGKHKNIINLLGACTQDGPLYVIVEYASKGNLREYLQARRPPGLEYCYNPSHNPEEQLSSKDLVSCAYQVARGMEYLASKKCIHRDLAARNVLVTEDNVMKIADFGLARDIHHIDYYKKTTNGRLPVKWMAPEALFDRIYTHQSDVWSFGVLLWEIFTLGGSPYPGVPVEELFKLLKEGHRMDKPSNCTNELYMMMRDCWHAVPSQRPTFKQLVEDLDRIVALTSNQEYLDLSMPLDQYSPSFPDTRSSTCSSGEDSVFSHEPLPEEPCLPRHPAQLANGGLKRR
Ba/F3-FGFR4-transfected cells, sequence (P22455 whole entry, change not shown): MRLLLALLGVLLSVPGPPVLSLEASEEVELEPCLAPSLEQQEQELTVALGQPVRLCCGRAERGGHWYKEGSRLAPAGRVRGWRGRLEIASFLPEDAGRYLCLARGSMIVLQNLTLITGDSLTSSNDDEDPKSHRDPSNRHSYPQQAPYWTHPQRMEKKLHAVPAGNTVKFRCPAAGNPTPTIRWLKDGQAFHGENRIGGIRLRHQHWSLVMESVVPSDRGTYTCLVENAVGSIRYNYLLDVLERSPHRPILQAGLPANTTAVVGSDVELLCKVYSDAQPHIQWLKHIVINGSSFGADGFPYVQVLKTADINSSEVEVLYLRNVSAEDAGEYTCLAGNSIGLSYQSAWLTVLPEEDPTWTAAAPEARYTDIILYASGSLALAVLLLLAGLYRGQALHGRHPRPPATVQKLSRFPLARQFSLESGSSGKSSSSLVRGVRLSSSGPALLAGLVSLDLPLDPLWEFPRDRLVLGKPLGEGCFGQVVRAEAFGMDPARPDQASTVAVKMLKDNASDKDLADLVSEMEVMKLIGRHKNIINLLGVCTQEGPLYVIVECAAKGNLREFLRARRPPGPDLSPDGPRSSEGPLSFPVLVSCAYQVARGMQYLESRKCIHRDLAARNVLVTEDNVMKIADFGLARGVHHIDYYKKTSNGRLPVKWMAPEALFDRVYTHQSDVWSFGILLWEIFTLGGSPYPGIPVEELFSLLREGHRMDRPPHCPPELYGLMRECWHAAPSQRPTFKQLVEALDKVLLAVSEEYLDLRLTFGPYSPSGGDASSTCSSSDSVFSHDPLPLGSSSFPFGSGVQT
Ba/F3-FGFR3-transfected cells, sequence (P22607 whole entry, change not shown): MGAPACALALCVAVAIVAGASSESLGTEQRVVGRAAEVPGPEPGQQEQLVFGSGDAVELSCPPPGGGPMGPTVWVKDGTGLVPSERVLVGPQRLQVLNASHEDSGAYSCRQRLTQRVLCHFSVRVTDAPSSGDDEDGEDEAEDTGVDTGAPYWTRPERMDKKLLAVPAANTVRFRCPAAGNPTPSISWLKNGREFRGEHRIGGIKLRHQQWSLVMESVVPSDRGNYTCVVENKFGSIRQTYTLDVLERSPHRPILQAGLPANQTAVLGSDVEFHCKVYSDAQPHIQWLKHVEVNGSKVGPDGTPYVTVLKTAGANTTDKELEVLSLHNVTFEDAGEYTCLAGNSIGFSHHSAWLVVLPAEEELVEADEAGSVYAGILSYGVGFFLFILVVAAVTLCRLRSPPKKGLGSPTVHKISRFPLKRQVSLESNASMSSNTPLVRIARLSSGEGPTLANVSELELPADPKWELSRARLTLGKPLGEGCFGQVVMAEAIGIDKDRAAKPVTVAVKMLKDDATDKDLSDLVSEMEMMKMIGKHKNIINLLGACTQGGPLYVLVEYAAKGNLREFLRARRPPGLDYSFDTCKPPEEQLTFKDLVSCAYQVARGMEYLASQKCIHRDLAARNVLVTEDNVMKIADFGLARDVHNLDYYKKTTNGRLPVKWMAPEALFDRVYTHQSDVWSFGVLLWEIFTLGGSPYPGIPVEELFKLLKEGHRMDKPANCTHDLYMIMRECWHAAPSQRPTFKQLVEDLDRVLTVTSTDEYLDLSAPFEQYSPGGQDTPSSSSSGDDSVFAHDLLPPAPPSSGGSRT

| IC50 [1] | pIC50 [2] | BAF3-FGFR 1 (MIN IL3) 96 well pIC50 ([3]; minus IL3, 96 well) | BAF3-FGFR 1 (MIN IL3) 384 well pIC50 [3] | BAF3-FGFR 3 (MIN IL3) 96 well pIC50 ([4]; minus IL3, 96 well) | BAF3-FGFR 3 (MIN IL3) 384 well pIC50 [4] | BAF3-FGFR4 pIC50 [5] | melting point | SMILES |
| --- | --- | --- | --- | --- | --- | --- | --- | --- |
| > 1 µM | < 6.00 | <5 | <5 | <5 | <5 | <5 | 141 °C | COc1cc(OC)cc(N(CC2CC2)c2ccc3ncc(-c4cccn4C)nc3c2)c1 [Compound 103] |
| 0.115 µM | 6.24 |  | 5.1 |  | 5.51 | 5.2 | 110 °C | COc1cc(OC)cc(N(CCCO)c2ccc3ncc(-c4ccnc(C(=O)NCCCN)c4)nc3c2)c1 [Compound 33] |
| 0.0195 µM | 6.75 |  | 6.455 |  | ~6.54 | 6.3 | 160 °C | COc1cc(OC)cc(N(CCO)c2ccc3ncc(-c4ccc(N)nc4)nc3c2)c1 [Compound 106] |
| 0.00804 µM | 7.03 |  | 6.975 |  | ~7.09 | ~7.11 | 144 °C | COc1cc(OC)cc(N(CCNC(C)C)c2ccc3ncc(-c4ccc(N)nc4)nc3c2)c1 [Compound 17] |
| 0.02 µM | 6.58 |  | 5.71 |  | ~6.09 | 6.0 | 124 °C | COc1cc(OC)cc(N(CCO)c2ccc3ncc(-c4ccccc4)nc3c2)c1 [Compound 120] |
| 0.251 µM | 6.70 |  | 6.63 |  | ~6.77 | 6.2 | 172 °C | CNC(=O)c1cc(-c2cnc3ccc(N(CCN4CCCC4CO)c4cc(OC)cc(OC)c4)cc3n2)ccn1 (centres unmarked) [Compound 109] |
| 0.0417 µM | 6.31 |  | 6.61 |  | 7.03 | 6.8 | 68 °C | CNC(=O)c1cc(-c2cnc3ccc(N(CCNC(C)C)c4cc(OC)cc(OC)c4)cc3n2)ccn1 [Compound 14] |
